{"source": "patent US9907307B2", "about": "“Aromatic compound and uses thereof” (SUMITOMO CHEMICAL COMPANY, LIMITED, priority 2014, dated 2018)", "tested_on": "wheat septoria tritici blotch fungus (Mycosphaerella graminicola)", "assay": "Control test against wheat septoria tritici blotch fungus, titer plate growth (Test Example 1)", "type": "cell-based", "details": "150 ppm in DMSO, 1 μl in 150 μl medium, 96-well plate, 18° C., 4 days"}
{"smiles": "CCOC(=O)C(=O)c1ccccc1COc1ccc(-c2cc(Cl)n(C)n2)cc1C", "note": "[present compound 1]", "values": [{"measurement": "control activity (Equation 1, degree of growth by absorbance at 550 nm)", "result": "≥ 70", "unit": "%"}]}
